Measurements taken from PubChem BioAssay (NCI).
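A five-concentration, 48-hour dose response in 96-well plates underlies each endpoint, interpolated linearly between surrounding concentrations. TGI denotes the concentration required for complete inhibition of growth.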

Key:
Experiment in all cases: growth of human tumour cells (NCI), 48 h
NCI/ADR-RES ovarian = test system: NCI/ADR-RES ovarian
HCC-2998 colon = test system: HCC-2998 colon
NCI-H23 lung = test system: NCI-H23 lung
COLO 205 colon = test system: COLO 205 colon
LOX IMVI melanoma = test system: LOX IMVI melanoma
OVCAR-8 ovarian = test system: OVCAR-8 ovarian
OVCAR-4 ovarian = test system: OVCAR-4 ovarian
SF-539 CNS = test system: SF-539 CNS
NCI-H226 lung = test system: NCI-H226 lung
UO-31 renal = test system: UO-31 renal

Structure (SMILES) | TGI (NCI/ADR-RES ovarian) [µM] | TGI (HCC-2998 colon) [µM] | TGI (NCI-H23 lung) [µM] | TGI (COLO 205 colon) [µM] | TGI (LOX IMVI melanoma) [µM] | TGI (OVCAR-8 ovarian) [µM] | TGI (OVCAR-4 ovarian) [µM] | TGI (SF-539 CNS) [µM] | TGI (NCI-H226 lung) [µM] | TGI (UO-31 renal) [µM]
CC(C)C(C/C=C1/CC(CO)(COC(=O)CC(C(C)C)C(C)C)OC1=O)C(C)C (stereo not given) | 31.6 | 13.3 | 29.9 | 3.33 | 20.8 | 29.7 | 31.8 | 23.8 | 22.6 | 19.9
Cc1ccc(/C=C/C(=O)c2c([O-])on[n+]2-c2ccccc2)cc1 | 7.11 | 4.15 | 17.5 | 7.35 | 3.74 | 4.05 | > 21.1 | 12.7 | > 45.6 | 6.24
O=C1c2ccccc2-c2nc(-c3cccnc3)cc3c2c1nc1ccccc13 | > 100 | > 100 | > 100 | > 100 | > 100 | > 100 | > 100 | > 100 | > 100 | > 100
CN1C(c2ccccc2)=CC(=O)C(O)=C(c2ccccc2)S1(=O)=O | > 100 | > 100 | > 100 | > 100 | > 100 | > 100 | > 100 | > 100 | > 100 | > 100
CN1CCC2(CC1)C(=O)N(N1CCCCCC1)C(=O)N2c1ccccc1 | > 100 | > 100 | > 100 | > 100 | > 100 | > 100 | > 100 | > 100 | > 100 | > 100
CC(C)CCC1(O)O[C@H]2C[C@H]3[C@@H]4CCC5CC(=O)C=C[C@]5(C)[C@H]4CC[C@]3(C)[C@H]2[C@@H]1C (stereo not given in full) | 33.1 | 5.86 | 14.8 | 27.8 | 26.3 | 30.5 | 24.3 | 31.7 | 14.8 | 30.3
CC(=O)Oc1ccc2c(c1)c1c(=O)oc(N(C)C)nc1n2Cc1ccccc1 | > 100 | > 100 | > 100 | > 100 | > 100 | > 100 | > 100 | > 100 | > 100 | > 81.8
CCCNC(=S)N/N=C/c1cccc(C)n1 | > 100 | > 100 | > 100 | > 100 | > 100 | > 100 | > 100 | 62.9 | 72.2 | > 100
COc1cc(N=NN(C)C)c(C(C)c2c3cc(OC)c(OC)cc3cc[n+]2C)cc1OC (stereo not given) | > 100 | > 100 | > 100 | 34.4 | > 100 | > 100 | > 100 | 47.3 | > 100 | > 100
CC(=O)C1=C(N=[N+]=[N-])c2cccc3cccc(c23)C1=O | 70.9 | 32 | 43.4 | 31.7 | 30.1 | 65.8 | 49.1 | 42 | 64.2 | 29.7
Cc1c(-c2cc3n(n2)C(c2cccs2)C(C#N)=C(c2ccccc2)N3)c(=O)n(-c2ccccc2)n1C (stereo not given) | > 100 | > 100 | > 100 | > 100 | > 100 | > 100 | > 100 | > 100 | > 100 | > 100
O=C(CSc1nc(=O)[nH]c2nc[nH]c12)Nc1ccccc1 | > 100 | > 100 | > 100 | > 100 | > 100 | > 100 | > 100 | 88.1 | > 100 | > 100
COc1ccc(C2SCC(=O)N2c2ccc(-c3ccc(-n4c(-c5ccccc5)nc5ccccc5c4=O)cc3)cc2)cc1 (stereo not given) | > 100 | > 100 | > 100 | > 100 | > 100 | > 100 | > 100 | > 100 | > 100 | > 100
